Experimental data from ChEMBL document CHEMBL5360578, “Design, synthesis and evaluation of novel pyrrole-hydroxybutenolide hybrids as promising antiplasmodial and anti-inflammatory agents” (Eur J Med Chem, 2023).
pIC50: −log10 of the molar value. Activity calls are given as the source filed them. No cut-off for these calls is given here.

Columns and labels:
[1] = Toxicity in Swiss mouse infected with chloroquine-resistant Plasmodium yoelii N67 assessed as mean survival time at 100 mg/kg/day, po for 4 days (reference value: 7.2 +/- 1.3 day); format: organism-based; conditions: in vivo, 96 h, time 4 day
[2] = Clearance in fasted Swiss mouse at 100 mg/kg, po measured upto 48 hrs by LC-MS/MS analysis; format: ADME, organism-based; conditions: in vivo
[3] = Volume of distribution in fasted Swiss mouse at 100 mg/kg, po measured upto 48 hrs by LC-MS/MS analysis; format: ADME, organism-based; conditions: in vivo
[4] = Stability in simulated intestinal fluid assessed as compound remaining at pH 6.8 measured upto 120 mins by LC-MS analysis; format: ADME; conditions: read-out: Stability
[5] = MRT in fasted Swiss mouse at 100 mg/kg, po measured upto 48 hrs by LC-MS/MS analysis; format: ADME, organism-based; conditions: in vivo
[6] = system: Plasmodium falciparum; experiment: Antimalarial activity against asynchronous chloroquine-sensitive Plasmodium falciparum 3D7 assessed as parasite growth inhibition infected in erythrocytes incubated for 72 hrs by SYBR green dye based assay; format: functional, organism-based; conditions: 3D7, 72 h
[7] = system: Plasmodium falciparum; experiment: Antimalarial activity against asynchronous chloroquine-resistant Plasmodium falciparum K1 assessed as parasite growth inhibition infected in erythrocytes incubated for 72 hrs by SYBR green dye based assay; format: functional, organism-based; conditions: K1, 72 h
[8] = Cmax in fasted Swiss mouse at 100 mg/kg, po measured upto 48 hrs by LC-MS/MS analysis; format: ADME, organism-based; parameters: time < 48 hrs, dose 100 mg/kg, route po; conditions: in vivo
[9] = system: Plasmodium yoelii; experiment: Antimalarial activity against chloroquine-resistant Plasmodium yoelii N67 infected in Swiss mouse assessed as parasite growth suppression at 100 mg/kg/day, po for 4 days measured on day 7 relative to control; format: functional; conditions: time 7 day
[10] = AUC in fasted Swiss mouse at 100 mg/kg, po measured upto 48 hrs by LC-MS/MS analysis; format: ADME, organism-based; parameters: dose 100 mg/kg, time < 48 hrs, route po; conditions: in vivo
[11] = system: THP-1; experiment: Antiinflammatory activity against human THP-1 cells assessed as inhibition of LPS-induced TNFalpha level at 10 uM incubated for 12 to 14 hrs followed by compound replenishment for 1 hr and subsequent LPS treatment for 4 hrs by ELISA assay (reference value: 93.43 %); format: functional; parameters: scale not given: the % may be the effect or the level left; conditions: time 17-19 hrs
[12] = Cytotoxicity against African green monkey Vero cells incubated for 3 days by fluorescence based assay; format: toxicity, cell-based; conditions: chlorocebus sabaeus, time 3 day
[13] = Stability in mouse plasma assessed as compound remaining at 10 uM measured upto 120 mins by LC-MS analysis; format: ADME, cell-free; conditions: read-out: Stability
[14] = Tmax in fasted Swiss mouse at 100 mg/kg, po measured upto 48 hrs by LC-MS/MS analysis; format: ADME, organism-based; conditions: in vivo
[15] = system: HEK-293T; experiment: Antiinflammatory activity against HEK293T cells assessed as fold increase in TNFalpha-induced NF-kappaB activity at 10 uM incubated for 1 hr followed by TNFalpha treatment for 5 hrs by luciferase based assay (reference value: 17.1); format: functional, Homo sapiens
[16] = Stability in simulated gastric fluid assessed as compound remaining at pH 1.2 measured upto 120 mins by LC-MS analysis; format: ADME; conditions: read-out: Stability
[17] = Stability in simulated physiological fluid assessed as compound remaining at pH 7.4 measured upto 120 mins by LC-MS analysis; format: physicochemical; conditions: read-out: Stability
[18] = Half life in fasted Swiss mouse at 100 mg/kg, po measured upto 48 hrs by LC-MS/MS analysis; format: ADME, organism-based; conditions: in vivo
[19] = system: Plasmodium yoelii; experiment: Antimalarial activity against chloroquine-resistant Plasmodium yoelii N67 infected in Swiss mouse assessed as parasite growth suppression at 100 mg/kg/day, po for 4 days measured on day 4 relative to control; format: functional; conditions: time 4 day
[20] = system: THP-1; experiment: Cytotoxicity against LPS-stimulated human THP-1 cells assessed as cell viability at 10 uM incubated for 12 hrs followed by LPS treatment measured after 4 hrs by PI staining based flow cytometry; format: functional; conditions: time 16.0 hrs

Cc1c(C(=O)Nc2ccccc2)c(-c2ccccc2)c(-c2ccc(C(C)C)cc2)n1CC1=CC(=O)OC1O (stereo not given)
MST [1]: 23.4 days
CL/F [2]: 966 mL/min/kg
Vd [3]: 270.36 L/kg
remaining at 2 h [4]: 86.2%
MRT [5]: 5.34 h
pIC50 [6]: 6.02
pIC50 [7]: 5.78
Cmax [8]: 415 ng/mL
Activity [9]: 100%
AUC at 48 h [10]: 1730 ng·h/mL
Activity [11]: 91.44%
CC50 at 72 h [12]: 126000 nM
remaining at 2 h, 10 µM [13]: 85.8%
Tmax [14]: 0.25 h
fold change (FC) [15]: 9.4
remaining at 2 h [16]: 85.4%
remaining at 2 h [17]: 94.8%
half-life [18]: 3.23 h
Activity [19]: 77.79%
Activity [20]: Active
